# Experimental data reported in patent publication US20100298343A1, “5-LIPOXYGENASE-ACTIVATING PROTEIN (FLAP) INHIBITORS” (priority 2007, published 2010).
# Biological target: T1, 5-lipoxygenase-activating protein (FLAP) (Homo sapiens, UniProt P20292)
# T1 construct: tissue Biological Speciality Corporation; host or cells: human polymorphonuclear cells (100,000 g membranes)
# T1 sequence (P20292 1-161): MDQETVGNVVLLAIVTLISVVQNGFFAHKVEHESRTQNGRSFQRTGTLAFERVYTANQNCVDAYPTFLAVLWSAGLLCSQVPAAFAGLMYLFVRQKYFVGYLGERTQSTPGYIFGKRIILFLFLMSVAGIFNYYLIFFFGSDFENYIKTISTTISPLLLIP
# Test: FLAP Binding Assay
# Conditions: human polymorphonuclear cell 100,000 g membranes; 3H MK886 or other radioligand; 30 minutes at room temperature
# Experimental: A non-limiting example of such a FLAP binding assay is as follows:
# Packed human polymorphonuclear cell pellets (1.8×10^9 cells) (Biological Speciality Corporation) were resuspended, lysed and 100,000 g membranes prepared as described (Charleson et al. Mol. Pharmacol, 41, 873-879, 1992). 100,000×g pelleted membranes were resuspended in Tris-Tween assay buffer (100 mM Tris HCl pH 7.4, 140 mM NaCl, 2 mM EDTA, 0.5 mM DTT, 5% glycerol, 0.05% Tween 20) to yield a protein concentration of 50-100 μg/mL. 10 μL membrane suspension was added to 96 well Millipore plate, 78 μL Tris-Tween buffer, 10 μL ^3H MK886 or ^3H 3-[5-(pyrid-2-ylmethoxy)-3-tert-butylthio-1-benzyl-indol-2-yl]-2,2-dimethylpropionic acid (or ^125I MK591 derivative Eggler et al, J. Labelled Compounds and Radiopharmaceuticals, 1994, vXXXIV, 1147)) to 30,000 cpm, 2 μL, inhibitor and incubated for 30 minutes at room temperature. 100 μL ice-cold washed buffer was added to the incubation mixture. Plates were then filtered and washed 3× with 200 μL ice cold Tris-Tween buffer, scintillation bottoms sealed, 100 μL scintillant added, shaken for 15 minutes then counted in a TopCount. Specific binding was determined as defined as total radioactive binding minus non-specific binding in the presence of 10 μM MK886. IC50s were determined using Graphpad prism analysis of drug titration curves.
row,Structure (SMILES),IC50
1,"CSc1c(C(Cc2ccccc2)C(=O)O)n(C)c2ccc(OCc3ccccn3)cc12 (stereo not shown) [Example 9, 2-[1-Methyl-3-methylsulfanyl-5-(pyridin-2-ylmethoxy)-1H-indol-2-yl]-3-phenyl-propionic acid]",10 to 100 µM
2,"Cn1c(C(Cc2ccccc2)C(=O)O)c(S(C)(=O)=O)c2cc(OCc3ccccn3)ccc21 (stereo not shown) [Example 10, 2-[3-Methanesulfonyl-1-methyl-5-(pyridin-2-ylmethoxy)-1H-indol-2-yl]-3-phenyl-propionic acid]",10 to 100 µM
3,"CCS(=O)(=O)c1c(C(Cc2ccccc2)C(=O)O)n(C)c2ccc(OCc3ccccn3)cc12 (stereo not shown) [Example 11, 2-[3-Ethanesulfonyl-1-methyl-5-(pyridin-2-ylmethoxy)-1H-indol-2-yl]-3-phenyl-propionic acid]",10 to 100 µM
4,"Cc1cnc(COc2ccc3c(c2)c(SC(C)(C)C)c(C(Cc2cnc(C)cn2)C(=O)O)n3C)cn1 (stereo not shown) [Example 37, 2-[3-tert-Butylsulfanyl-1-methyl-5-(5-methyl-pyrazin-2-ylmethoxy)-1H-indol-2-yl]-3-(5-methyl-pyrazin-2-yl)-propionic acid]",100 to 250 µM
